{"source": "patent US20150265554A1", "about": "“Treatment of MeCP-2 Associated Disorders” (UNIVERSITÉ D'AIX-MARSEILLE, priority 2010, published 2015)", "key": {"Mecp2-deficient mice [1]": {"test_system": "Mecp2-deficient mice", "experiment": "Lifespan (survival) study, oral cysteamine in drinking water", "format": "in vivo, mouse", "conditions": "cysteamine in drinking water 225 mg/kg/day from P30, mean±SEM, n=17, p<0.05 vs vehicle (65±2.2 days), Kaplan-Meir log-rank test", "protocol": "Experiments were performed on Sprague dawley rats and B6.129P2(C)- MeCP2 tm1-1 Bird mouse model for RTT (Guy, J., Hendrich, B., Holmes, M., Martin, J. E., Bird, A. (2001) A mouse Mecp2-null mutation causes neurological symptoms that mimic Rett syndrome. Nat. Genet. 27, 322-326). The mice were obtained from the Jackson Laboratory and maintained on a C57BL/6 background. The rats were obtained from Charles River Laboratories, France. The experimental procedures were carried out in keeping with the European guidelines for the care and use of laboratory animals (Council Directive […]). For the mouse experiments, hemizygous mutant males (MeCP2^-/y) were generated by crossing heterozygous knockout females to C57BL/6 males. […]\nFrom P30, animals received a cysteamine treatment in their drinking water (225 mg/kg/day) (Sigma-Aldrich; St-Quentin, France). […] Open-field activity was measured in an arena made of clear perspex (38×30 cm). The test session lasted 15 min with data recorded using the Ethovision 2.3.19 tracking system (Noldus Information Technology). Velocity (cm/s) and total distance moved (cm) were recorded. […]"}, "Mecp2-deficient mice [2]": {"test_system": "Mecp2-deficient mice", "experiment": "Open-field activity (total distance moved, velocity)", "format": "in vivo, mouse", "protocol": "Experiments were performed on Sprague dawley rats and B6.129P2(C)- MeCP2 tm1-1 Bird mouse model for RTT (Guy, J., Hendrich, B., Holmes, M., Martin, J. E., Bird, A. (2001) A mouse Mecp2-null mutation causes neurological symptoms that mimic Rett syndrome. Nat. Genet. 27, 322-326). The mice were obtained from the Jackson Laboratory and maintained on a C57BL/6 background. The rats were obtained from Charles River Laboratories, France. The experimental procedures were carried out in keeping with the European guidelines for the care and use of laboratory animals (Council Directive […]). For the mouse experiments, hemizygous mutant males (MeCP2^-/y) were generated by crossing heterozygous knockout females to C57BL/6 males. Genotyping was performed by routine PCR technique according to Jackson Laboratory protocols and as previously described (Viemari, J. C., Roux, J. C., Tryba, A. K., Saywell, V., Burnet, H., Peña, F., Zanella, S., Bévengut, M., Barthelemy-Requin, M., Herzing, L. B., Moncla, A., Mancini, J., Ramirez, J. M., Villard, L., Hilaire, G. (2005) Mecp2 deficiency disrupts norepinephrine and respiratory systems in mice. J. Neurosci. 25, 11521-11530).\nFrom P30, animals received a cysteamine treatment in their drinking water (225 mg/kg/day) (Sigma-Aldrich; St-Quentin, France). Every 2 days, mice were weighted, cysteamine solution renewed and treatment consumption checked. […] Seventy-nine Mecp2 deficient mice were studied (lifespan study, n=17 cysteamine-treated and n=42 untreated; motor evaluation n=10 cysteamine-treated and n=10 untreated). The mice were assigned to each experimental group by an investigator who was blind to their genotype. Open-field activity was measured in an arena made of clear perspex (38×30 cm). The test session lasted 15 min with data recorded using the Ethovision 2.3.19 tracking system (Noldus Information Technology). Velocity (cm/s) and total distance moved (cm) were recorded. Velocity calculations on Ethovision were obtained using an input filter setting the minimal distance moved (0.6 cm) so that ambulations shorter than this value were never taken into account."}}, "data": [{"compound": "NCCS", "note": "[cysteamine]", "values": [{"measurement": "life span", "setting": "Mecp2-deficient mice [1]", "value": "74.8 ± 5.2", "unit": "days"}, {"measurement": "locomotion in open field arena (total distance moved and velocity)", "setting": "Mecp2-deficient mice [2]; Mecp2-deficient mice, chronic oral cysteamine vs placebo group, especially in the later stages", "value": "significantly improved locomotion"}, {"measurement": "mouse velocity in open field", "setting": "Mecp2-deficient mice [2]; Mecp2-deficient mice, oral cysteamine vs vehicle, from P65, p<0.05, n=10 per group", "value": "significantly increased"}, {"measurement": "total distance traveled in the open field arena during the 15-minute session", "setting": "Mecp2-deficient mice [2]; Mecp2-deficient mice, oral cysteamine vs vehicle, from P75, n=10 per group", "value": "statistically increased"}, {"measurement": "total distance, difference between cysteamine treated and placebo group", "setting": "Mecp2-deficient mice [2]; P55, open field 15 min", "value": "+3%"}, {"measurement": "velocity, difference between cysteamine treated and placebo group", "setting": "Mecp2-deficient mice [2]; P55, open field 15 min", "value": "+18%"}, {"measurement": "total distance, difference between cysteamine treated and placebo group", "setting": "Mecp2-deficient mice [2]; P65, open field 15 min", "value": "+40%"}, {"measurement": "velocity, difference between cysteamine treated and placebo group", "setting": "Mecp2-deficient mice [2]; P65, open field 15 min", "value": "+33%"}, {"measurement": "total distance, difference between cysteamine treated and placebo group", "setting": "Mecp2-deficient mice [2]; P75, open field 15 min", "value": "+128%"}, {"measurement": "velocity, difference between cysteamine treated and placebo group", "setting": "Mecp2-deficient mice [2]; P75, open field 15 min", "value": "+65%"}, {"measurement": "total distance, difference between cysteamine treated and placebo group", "setting": "Mecp2-deficient mice [2]; P85, open field 15 min", "value": "+485%"}, {"measurement": "velocity, difference between cysteamine treated and placebo group", "setting": "Mecp2-deficient mice [2]; P85, open field 15 min", "value": "+74%"}]}]}
